The results in this text go back to patent US4565805A, “Pharmaceutical preparation for the treatment of peptic ulcer” (priority 1984, dated 1986).

Like-named read-outs stand apart in the source and are kept apart here.

Experiment [1] relates to patients suffering from duodenal peptic ulcer. Here is the method:
The preparation was tested in clinic on 40 patients suffering from duodenal peptic ulcer. The control groups consisted of 20 patients treated with cymethidin in the daily dose of 800 mg. Only male patients were subjected to the treatment, their age varied from 22 to 56 years. The duration of the disease was different: from newly detected ulcer to 28 years of the disease. The diagnosis of the peptic ulcer was made on the basis of generally accepted clinical tests with an obligatory use of the gastroduodenoscopy. The gastroduodenoscopy was carried out prior to administration of the preparation and 14, 21 and 28 days thereafter (the two latter endoscopy were carried out only in the use of non-scarring ulcers).
The preparation was administered intramuscularly in a dose of 10-15 μg/kg in a 0.9% aqueous solution of sodium chloride twice a day (in the moring at 7 a.m. and in the evening at 19 p.m.). The treatment course was 14-28 days, the course dose of the preparation was 30-60 mg. Apart from the preparation, the patients were given no additional pharmaceuticals, antacids were also excluded.

For experiment [2], the system named is experimental duodenal ulcers (cystamine) in rats. The settings on record: preparation 12 μg/kg twice a day, cymethidin 7 mg/kg a day.
Experimental: 170 rats were used. […] The animals of the control group were injected with a physiological solution. The slaughter of the animals was effected in groups of 10 animals within different periods after the beginning of the experiment.

With `CN/C(=N\CCSCc1nc[nH]c1C)NC#N` [cymethidin], the “patients with pains still noted” value in experiment [1] (by the end of the 2-nd week, cymethidin 800 mg daily) came out at 35%. The “patients with healed ulcer” value in experiment [1] (by the end of the 3-rd week, preparation 10-15 μg/kg i.m. twice a day, cymethidin 200 mg 4 times a day) came to 65%. Also, the ulcer index worked out at 1.6 in experiment [2] (24 hrs, control 3.1); 1.6 in experiment [2] (48 hrs, control 3.3); 1.5 in experiment [2] (72 hrs, control 3.2); 0.8 in experiment [2] (7 ds, control 1.8); 0 in experiment [2] (14 ds, control 1.2). Further, the “time of complete healing of ulcers” value in experiment [2] is on record as “by the end of the second week”.
